Laboratory results taken from patent US4327097A, “Novel penicillins” (Toyama Chemical Co., Ltd., priority 1974, dated 1982).
Converted amounts (≈) assume the structure as drawn.

Columns and labels:
[1] = tested on: β-lactamase, Pseudomonas aeruginosa GN 238; test: Resistant activity against β-lactamase, iodometric assay; type: biochemical; settings: β-lactamase from Pseudomonas aeruginosa GN 238; Potassium Penicillin G = 100
Protocol: (3) Resistant activity against β-lactamase, Pseudomonas aerugionsa GN 238:
The resistant activity of each compound against β-lactamase was measured in the manner described below.
β-Lactamase was prepared from Pseudomonas aeruginosa GN 238. This microorganism was cultured in 100 ml of a medium containing 2 g of yeast extract, 10 g of polypeptone, 2 g of glucose, 7 g of disodium hydrogen phosphate, 2 g of potassium dihydrogen phosphate, 1.2 g of ammonium sulfate and 0.4 g of magnesium sulfate, per liter, in a 500-ml Erlenmeyer flask for 6 hrs. at 37° C. with shaking. The resulting cells were collected by centrifugation (5,000 r.p.m.×10 min.), washed three times with 0.1 M phosphate buffer (pH 7.0). Subsequently, the cells were subjected to sonication (20 KHz, 20 min.) and then centrifuged at 15,000 r.p.m. for 60 min. By using the supernatant of enzyme fluid, the resistance of each compound against β-lactamase was determined by the iodometric assay method. Each numeral shown in Table 7 is a relative activity value calculated by assuming as 100 the activity of the control Potassium Penicillin G.

[2] = tested on: Staphylococcus aureus; test: MIC against clinical isolates; type: cell-based; settings: Table 5-1, clinical isolate; unit assumed
[3] = tested on: Proteus morganii; test: MIC against clinical isolates; type: cell-based; settings: Table 5-6, clinical isolate; unit assumed
[4] = tested on: Shigella flexneri; test: MIC against clinical isolates; type: cell-based; settings: Table 5-5, clinical isolate; unit assumed
Protocol: (§1) The minimum inhibitory concentration (MIC) was determined by the plate method disclosed in "Chemotherapy" (Japan), Vol. 16, (1968), pages 98-99. The culture medium used was a Heart infusion agar (pH 7.4). The number of the cells per plate used in the inoculum was 10^4 (10^6 cells/ml).
(§2) MIC was determined in the same manner as in the preceding paragraph (1).

[5] = tested on: Shigella sonnei; test: MIC against clinical isolates; type: cell-based; settings: Table 5-5, clinical isolate; unit assumed
Protocol: as §1, §2

[6] = tested on: Escherichia coli; test: MIC against clinical isolates; type: cell-based; settings: Table 5-2, clinical isolate; unit assumed
[7] = tested on: Proteus mirabilis; test: MIC against clinical isolates; type: cell-based; settings: Table 5-6, clinical isolate; unit assumed
[8] = tested on: Pseudomonas aeruginosa; test: MIC against clinical isolates; type: cell-based; settings: Table 5-3, clinical isolate; unit assumed
[9] = biological target: T1, β-lactamase, Proteus vulgaris GN 76 (Proteus vulgaris, UniProt P52664); test: Resistant activity against β-lactamase, iodometric assay; type: biochemical; settings: control Cephalorizine = 100
T1 construct: By using the supernatant of enzyme fluid; endogenous in cells; host or cells: Proteus vulgaris GN 76 (penicillin G-induced cells, sonicated, 15,000 r.p.m. supernatant)
T1 sequence (P52664 30-300): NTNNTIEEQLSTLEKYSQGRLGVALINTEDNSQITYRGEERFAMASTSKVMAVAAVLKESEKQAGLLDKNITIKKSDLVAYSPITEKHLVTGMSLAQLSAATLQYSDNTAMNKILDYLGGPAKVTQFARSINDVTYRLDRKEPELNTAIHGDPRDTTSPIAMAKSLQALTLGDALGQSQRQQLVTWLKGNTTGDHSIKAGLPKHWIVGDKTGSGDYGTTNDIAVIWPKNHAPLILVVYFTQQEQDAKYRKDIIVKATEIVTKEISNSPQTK
Protocol: (§3) (4) Resistant activity of each cephalosporin compound against β-lactamase, Proteus vulgaris GN 76 and Escherichia freundii GN 346:
(§4) The resistant activity of each cephalosporin compound against β-lactamase was measured in the manner described below.
(§5) β-lactamase was prepared from Proteus vulgaris GN 76 and Escherichia freundii GN 346. 10 ml of an overnight culture in Heart Infusion broth was diluted with 100 ml of a medium containing 2 g of yeast extract, 10 g of polypeptone, 2 g of glucose, 7 g of disodium hydrogen phosphate, 2 g of potassium dihydrogen phosphate, 1.2 g of ammonium sulfate and 0.4 g of magnesium sulfate, per liter, and incubated with shaking at 37° C. After incubation of 2 hrs, Penicillin G (50 μg/ml) was added as the inducer, and further incubated for 2 hrs. The resulting cells were collected by centrifugation (5,000 r.p.m.×10 min.) and washed two times with 0.1 M phosphate buffer (pH 7.0). Subsequently, the cells were subjected to sonication (20 KHz, 5 min.) and then centrifuged at 15,000 r.p.m. for 60 min. By using the supernatant of enzyme fluid, the stability of each compound against β-lactamase was determined by the iodometric assay method. Each numeral shown in Table 7-2 is a relative activity value calculated by assuming as 100 the activity of the control Cephalorizine.

[10] = biological target: β-lactamase, Escherichia freundii GN 346 (Citrobacter freundii, UniProt Q46041); test: as above; type: biochemical; settings: control Cephalorizine = 100
Chain of β-lactamase, Escherichia freundii GN 346 (Q46041 entry or part of it): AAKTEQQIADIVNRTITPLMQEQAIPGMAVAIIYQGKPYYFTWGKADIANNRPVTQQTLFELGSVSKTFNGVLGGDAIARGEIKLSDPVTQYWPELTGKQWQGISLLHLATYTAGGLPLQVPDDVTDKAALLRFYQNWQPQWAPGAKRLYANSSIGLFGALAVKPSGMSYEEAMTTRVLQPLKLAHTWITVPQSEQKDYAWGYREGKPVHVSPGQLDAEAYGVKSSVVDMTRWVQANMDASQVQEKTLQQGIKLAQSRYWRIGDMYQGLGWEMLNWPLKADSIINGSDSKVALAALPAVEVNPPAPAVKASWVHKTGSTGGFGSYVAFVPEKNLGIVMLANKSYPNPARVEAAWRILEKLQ
Protocol: as §3, §4, §5

[11] = tested on: Pseudomonas aeruginosa I.F.O.; test: MIC, plate method, standard strains; type: cell-based; settings: unit assumed; for MIC Pseudomonas aeruginosa I.F.O.: Table 4, standard strain
Protocol: as §1

[12] = tested on: Staphylococcus aureus 209p; test: MIC, plate method, standard strains; type: cell-based; settings: unit assumed
Protocol: as §1

[13] = tested on: Proteus vulgaris 3027; test: MIC, plate method, standard strains; type: cell-based; settings: unit assumed
Protocol: as §1

[14] = tested on: Klebsiella pneumoniae; test: MIC, plate method, standard strains; type: cell-based; settings: unit assumed
Protocol: as §1

[15] = tested on: Escherichia coli NIHJ; test: MIC, plate method, standard strains; type: cell-based; settings: unit assumed; for MIC Escherichia coli NIHJ: Table 4, standard strain
Protocol: as §1

CC1(C)S[C@@H]2[C@H](NC(=O)Cc3ccccc3)C(=O)N2[C@H]1C(=O)O [Potassium Penicillin G, reference compound]
Relative activity (%), resistant activity against β-lactamase [1]: 100%

CC1(C)S[C@@H]2[C@H](NC(=O)[C@H](N)c3ccccc3)C(=O)N2[C@H]1C(=O)O [Sodium Ampicillin, reference compound]
MIC Staphylococcus aureus MS 8588 [2]: 6.25 mg/L
MIC Staphylococcus aureus MS 8596 [2]: 1.56 mg/L
MIC Staphylococcus aureus MS 8684 [2]: 1.56 mg/L
MIC Staphylococcus aureus MS 8713 [2]: 3.13 mg/L
MIC Proteus morganii [3]: < 1.57 mg/L
MIC Shigella flexneri JS 11839 [4]: 1.57 mg/L
MIC Shigella sonnei JS 11232 [5]: > 200 mg/L
MIC Shigella sonnei JS 11755 [5]: 6.25 mg/L
MIC Escherichia coli GN 3435 [6]: 3.13 mg/L
MIC Escherichia coli GN 3452 [6]: 6.25 mg/L
MIC Escherichia coli GN 3481 [6]: 6.25 mg/L
MIC Escherichia coli K-1 [6]: 6.25 mg/L
MIC Escherichia coli K-2 [6]: 6.25 mg/L
MIC Proteus mirabilis [7]: < 1.57 mg/L

CC1(C)S[C@@H]2[C@H](NC(=O)C(C(=O)O)c3ccccc3)C(=O)N2[C@H]1C(=O)O (stereo partly drawn) [Sodium Carbenicillin, reference compound]
MIC Staphylococcus aureus F-1 [2]: 6.25 mg/L
MIC Staphylococcus aureus F-2 [2]: 3.13 mg/L
MIC Staphylococcus aureus F-3 [2]: 3.13 mg/L
MIC Staphylococcus aureus F-4 [2]: 12.5 mg/L
MIC Staphylococcus aureus MS 8588 [2]: 6.25 mg/L
MIC Staphylococcus aureus MS 8596 [2]: 6.25 mg/L
MIC Staphylococcus aureus MS 8684 [2]: 6.25 mg/L
MIC Staphylococcus aureus MS 8713 [2]: 6.25 mg/L
Relative activity (%), resistant activity against β-lactamase [1]: 116%
MIC Shigella flexneri JS 11215 [4]: > 200 mg/L
MIC Shigella flexneri JS 11839 [4]: 12.5 mg/L
MIC Shigella sonnei JS 11232 [5]: > 200 mg/L
MIC Shigella sonnei JS 11755 [5]: 12.5 mg/L
MIC Escherichia coli GN 3435 [6]: 6.25 mg/L
MIC Escherichia coli GN 3452 [6]: 12.5 mg/L
MIC Escherichia coli GN 3481 [6]: 6.25 mg/L
MIC Escherichia coli K-1 [6]: 6.25 mg/L
MIC Escherichia coli K-2 [6]: 6.25 mg/L
MIC Escherichia coli K-4 [6]: 12.5 mg/L
MIC Pseudomonas aeruginosa GN 383 [8]: 50 mg/L

CC1=C(C(=O)O)N2C(=O)[C@@H](NC(=O)[C@H](N)c3ccccc3)[C@H]2SC1 [Sodium Cephalexin, reference compound]
Relative activity (%) against β-lactamase, Pr. vulgaris GN 76 [9]: 150%
Relative activity (%) against β-lactamase, E. freundii GN 346 [10]: 29%

CC1(C)S[C@@H]2[C@H](NC(=O)C(c3ccccc3)S(=O)(=O)O)C(=O)N2[C@H]1C(=O)O (stereo partly drawn) [Sodium Sulbenicillin, reference compound]
MIC Staphylococcus aureus F-1 [2]: 6.25 mg/L
MIC Staphylococcus aureus F-3 [2]: 6.25 mg/L
MIC Staphylococcus aureus F-4 [2]: 6.25 mg/L
Relative activity (%), resistant activity against β-lactamase [1]: 50%
MIC Shigella flexneri JS 11215 [4]: > 200 mg/L
MIC Shigella flexneri JS 11839 [4]: 12.5 mg/L
MIC Shigella sonnei JS 11232 [5]: > 200 mg/L
MIC Shigella sonnei JS 11755 [5]: > 200 mg/L
MIC Escherichia coli GN 3435 [6]: 6.25 mg/L
MIC Escherichia coli GN 3452 [6]: 12.5 mg/L
MIC Escherichia coli GN 3481 [6]: 12.5 mg/L
MIC Escherichia coli K-1 [6]: 6.25 mg/L
MIC Escherichia coli K-2 [6]: 12.5 mg/L
MIC Escherichia coli K-4 [6]: 6.25 mg/L

CC1(C)SC2C(NC(=O)C(NC(=O)N3CC(=O)NC(=O)C3)c3ccccc3)C(=O)N2C1C(=O)O (stereo not drawn) [compound 59]
MIC Pseudomonas aeruginosa I.F.C ([11]; Table 3, standard strain): 25 mg/L (≈ 51.1 µM)
MIC Staphylococcus aureus 209p ([12]; Table 3, standard strain, Heart infusion agar pH 7.4): < 1.57 mg/L
MIC Proteus vulgaris 3027 ([13]; Table 3, standard strain): 3.13 mg/L (≈ 6.39 µM)
MIC Klebsiella pneumoniae ([14]; Table 3, standard strain): 200 mg/L (≈ 409 µM)
MIC Esche--richin coil NIHJ ([15]; Table 3, standard strain): < 1.57 mg/L

CC(=O)OCC1=C(C(=O)O)N2C(=O)[C@@H](NC(=O)Cc3cccs3)[C@H]2SC1 [drawing 248, reference compound]
MIC Pseudomonas aeruginosa I.F.O. [11]: > 200 mg/L
MIC Staphylococcus aureus 209p ([12]; Table 4, standard strain): < 1.57 mg/L
MIC Proteus vulgaris 3027 ([13]; Table 4, standard strain): 100 mg/L (≈ 252 µM)
MIC Klebsiella pneumoniae ([14]; Table 4, standard strain): < 1.57 mg/L
MIC Escherichia coli NIHJ [15]: < 1.57 mg/L

O=C(Cc1cccs1)N[C@@H]1C(=O)N2C(C(=O)[O-])=C(C[n+]3ccccc3)CS[C@H]12 [drawing 250, reference compound]
MIC Pseudomonas aeruginosa I.F.O. [11]: 200 mg/L (≈ 481 µM)
MIC Staphylococcus aureus 209p ([12]; Table 4, standard strain): < 1.57 mg/L
MIC Proteus vulgaris 3027 ([13]; Table 4, standard strain): 200 mg/L (≈ 481 µM)
MIC Klebsiella pneumoniae ([14]; Table 4, standard strain): 3.13 mg/L (≈ 7.53 µM)
MIC Escherichia coli NIHJ [15]: > 3.13 mg/L
